Patent US5935977A, “Substituted vinyl pyridine derivative and drugs containing the same” (SS Pharmaceutical Co., Ltd., priority 1996, dated 1999)

Key:
TNF-α = TNF-α Production Inhibition Test in LPS-treated U 937 cells; format: cell-based; conditions: U 937 cells differentiated with PMA; LPS 10 ng/ml, 6 hours; human TNF-α ELISA
Procedure: Human promonocytic leukemia cells (U 937 cells, 1×10^5 cells/400 μl) were inoculated on a 24-well culture plate. By use of an RPMI 1640 culture liquid (supplemented with 10% FCS) containing 50 nM PMA, the cells were incubated for 72 hours, to thereby induce differentiation into monocyte/macrophage (see Sarkiz Daniel-Issakani, Allem M. Spiegel and Berta Strulovici (1989), J. Biol. Chem. 264, p20240-20247). Subsequently, the culture supernatant was discarded, and an RPMI 1640 culture liquid (supplemented with 10% FCS) containing 10 ng/ml of LPS (lipopolysaccharide; E. coli, 0111:B4) was added. Each compound was added one hour before the LPS treatment, so as to achieve concentrations of 100 μM, 10 μM, 1 μM, and 0.1 μM. Six hours after addition of LPS, the quantity of produced TNF-α in the supernatant was measured by use of a human TNF-α ELISA kit (Amersham, code RPN 2758), For respective doses of each compound, % control was calculated, wherein the quantity of TNF-α produced when LPS treatment was performed and the compound was not added was considered 100%. Further, based on primary regression curves, there were calculated IC50 values in terms of TNF-α production inhibitory activity for respective compounds.

PDE IV [1] = conditions: PDE IV vs other PDE isozymes; cited from earlier work
PDE V = target: T1, PDE V (Homo sapiens, UniProt O76074); experiment: PDE Inhibitory Activity Test, PDE V; format: biochemical; conditions: human platelet PDE V; substrate 1 μM; 20 min at 30° C.
T1 construct: isolated from human tissue and purified in accordance with the method described in literature; from tissue; host or cells: human platelets
Procedure: A variety of PDE isozymes shown below were isolated from human tissue and purified in accordance with the method described in literature.
H. Hidaka, et al., Bioph. Bioch. Acta, (1976), 429, p485
C. D. Nicholson, et al., Trends Pharmacol. Sci., (1991), 12, p19.
The PDE activity was determined through use of a modified two-step assay method described by Hidaka et al. (Bioph. Bioch. Acta., (1976), 429, p485),
Briefly, [^3 H]cAMP and [^3 H]cGMP are hydrolyzed by their respective PDE isozymes to form [^3 H]5'-AMP and [^3 H]5'-GMP, respectively. Subsequently, [^3 H]5^1 -AMP and [^3 H]5^1 -GMP are transformed into [^3 H]adenosine and [^3 H]guanosine, respectively, due to the action of nucleotidases. Unreacted [^3 H]cAMP and [^3 H]cGMP are removed, causing them to bond to ion exchange resin, and the quantity of eluted [^3 H]adenosine or [^3 H]guanosine was counted in a liquid scintillation counter.
The diluted enzyme solution contains 50 mM Tris-HCl (pH 8.0), 5 mM MgCl2, and 50 μg of bovine serum albumin, wherein the concentrations represent final concentrations. The substrate concentration is 1 μM. The concentration of each test compound varies between 0.1 nM and 100 μM. Each test sample is incubated for 20 minutes at 30° C., and the PDE reaction is terminated by boiling for 2 minutes. The nucleotidase reaction was induced by adding snake venom nucleotidase to the above-described reaction mixture and incubating the resultant mixture for 20 minutes at 30° C.

PDE IV [2] = experiment: PDE Inhibitory Activity Test, PDE IV; format: biochemical; conditions: PDE IV from human histocytic lymphoma (U-937); substrate 1 μM; 20 min at 30° C.
PDE III = experiment: PDE Inhibitory Activity Test, PDE III; format: biochemical; conditions: human platelet PDE III; substrate 1 μM; 20 min at 30° C.
[3] = in vivo; cited from earlier work
PDE = conditions: cited from earlier work

Structure (SMILES) | IC50 (TNF-α) [µM] | potency at PDE IV relative to other PDE isozymes (PDE IV [1]) [times] | IC50 (PDE V) [µM] | IC50 (PDE IV [2]) [µM] | IC50 (PDE III) [µM] | safety range [3] | PDE inhibition selectivity (PDE)
COc1cnc(/C(C#N)=C/c2ccnc3ccccc23)cc1OC1CCCC1 [Example 10, (Z)-2-(4-Cyclopentyloxy-5-methoxy-2-pyridyl)-3-(4-quinolyl)propenenitrile] | 10 |  |  |  |  |  | 
CCCCOc1cc(CC2CNC(=O)N2)ccc1OC (racemic) [Ro20-1724] |  | 100 |  |  |  |  | 
COc1cnc(/C(C#N)=C/c2c(Cl)cncc2Cl)cc1O[C@@H]1C[C@H]2CC[C@@H]1C2 (relative stereo) [Example 21, (Z)-3-(3,5-Dichloro-4-pyridyl)-2-[5-methoxy-4-(exo-2-norbornyloxy)-2-pyridyl]propenenitrile] | 13.3 |  |  |  |  |  | 
COc1cnc(/C(C#N)=C/c2c(Cl)cncc2Cl)cc1OCCCc1ccccc1 [Example 15, (Z)-3-(3,5-Dichloro-4-pyridyl)-2-[5-methoxy-4-(3-phenylpropyloxy)-2-pyridyl]propenenitrile] |  |  | 56 | 0.0048 | 91 |  | 
COc1cnc(/C(C#N)=C/c2c(Cl)cncc2Cl)cc1OCCc1ccccc1 [Example 14, (Z)-3-(3,5-Dichloro-4-pyridyl)-2-(5-methoxy-4-phenethyloxy-2-pyridyl)propenenitrile] |  |  | 5.6 | 0.0059 | > 100 |  | 
CCOc1cnc(/C(C#N)=C/c2c(Cl)cncc2Cl)cc1OC1CCCC1 [Example 18, (Z)-2-(4-Cyclopentyloxy-5-ethoxy-2-pyridyl)-3-(3,5-dichloro-4-pyridyl)propenenitrile] |  |  | 12 | 0.036 | 18 |  | 
COc1cnc(/C(C#N)=C/c2c(Cl)cncc2Cl)cc1OC1CCCC1 [Example 1, (Z)-2-(4-cyclopentyloxy-5-methoxy-2-pyridyl)-3-(3,5-dichloro-4-pyridyl)propenenitrile] | 10.2 |  | > 100 | 0.0026 | 10 |  | 
COc1cnc(/C(C#N)=C/c2c(Cl)cncc2Cl)cc1OC1Cc2ccccc2C1 [Example 19, (Z)-3-(3,5-Dichloro-4-pyridyl)-2-[4-(2-indanyloxy)-5-methoxy-2-pyridyl]propenenitrile] | 2.9 |  | > 100 | 0.00065 | > 100 |  | 
COc1ccc(C2CNC(=O)C2)cc1OC1CCCC1 (centres unmarked) [Rolipram, reference compound] | 100 |  |  | 5 | > 100 |  | 
Cn1c(=O)c2[nH]cnc2n(C)c1=O [theophylline] |  |  |  |  |  | rather narrow | inhibits PDE non-selectively
COc1cnc(/C(C#N)=C/c2c(OC)cncc2OC)cc1OC1CCCC1 [Example 11, (Z)-2-(4-Cyclopentyloxy-5-methoxy-2-pyridyl)-3-(3,5-dimethoxy-4-pyridyl)propenenitrile] | 5.5 |  |  |  |  |  | 
COc1cnc(/C(C#N)=C/c2c(Cl)cncc2Cl)cc1OC1CCOC1 (centres unmarked) [Example 20, (Z)-3-(3,5-Dichloro-4-pyridyl)-2-[5-methoxy-4-(tetrahydro-3-furanyloxy)-2-pyridyl]propenenitrile] | 7.1 |  | > 100 | 0.011 | 56 |  | 
CCC(CC)Oc1cc(/C(C#N)=C/c2c(Cl)cncc2Cl)ncc1OC [Example 17, (Z)-3-(3,5-Dichloro-4-pyridyl)-2-[4-(1-ethylpropyloxy)-5-methoxy-2-pyridyl]propenenitrile] |  |  | > 100 | 0.036 | > 100 |  | 
CCCCOc1cc(/C(C#N)=C/c2c(Cl)cncc2Cl)ncc1OC [Example 16, (Z)-2-(4-Butyloxy-5-methoxy-2-pyridyl)-3-(3,5-dichloro-4-pyridyl)propenenitrile] | 13.1 |  | 31 | 0.015 | 15 |  | 
COc1cnc(/C(C#N)=C/c2ccncc2)cc1OC1CCCC1 [Example 4, (Z)-2-(4-Cyclopentyloxy-5-methoxy-2-pyridyl)-3-(4-pyridyl)propenenitrile] | 7.6 |  |  |  |  |  | 
